Values quoted from earlier work, collected in patent US20130190368A1, “NOVEL POLYMORPHS OF FEBUXOSTAT” (HETERO RESEARCH FOUNDATION, priority 2010, published 2013).

Settings: compared to allopurinol

Cc1nc(-c2ccc(OCC(C)C)c(C#N)c2)sc1C(=O)O [febuxostat, 2-[3-cyano-4-(2-methylpropoxy)phenyl]-4-methyl-5-thiazolecarboxylic acid]
amount of initial gout flares or surface area of gout tophi: no difference
individuals with decreased levels of uric acid: more individuals treated with febuxostat had decreased levels of uric acid
